This is an account of results in patent publication US20060110481A1, “COMPOSITIONS CONTAINING VITEX AGNUS-CASTUS BERRY OIL FOR COSMECEUTICAL APPLICATIONS AND METHOD OF ISOLATION OF THE ACTIVE COMPONENT” (SAMI LABS LIMITED, priority 2004, published 2006).

Common to all, as to format: cell-based
One assay has as its system E. coli. Description: Disc diffusion antimicrobial study against E. coli. Here is the method: (§1) Procedure: Medium used for this study was reinforced clostridial Agar (RCA). The medium which was prepared and sterilized in 30 ml vials was poured into the plates inside the chamber and allowed to solidity. The culture was inoculated [0.3 ml/plate] into the plates and spread. After 30 minutes, antibacterial sterile discs [6 mm] were dispensed (2/plate), and 2.5, 5.0, 7.5 and 10 μl of the prepared samples and controls were dispensed onto the discs. The plates were incubated inside the anaerobic chamber at 37° C. for 48 hours duration.
(§2) Antimicrobial studies of Vitex oil against general pathogenic aerobic bacteria such as E. coli and S. aureus were also carried out. E. coli was grown in lactose broth and S. aureus in nutrient broth. The method used was the same as it was followed for P. acnes. Clindac A (Clindamycin phosphate gel 1% w/w) was used as positive control. The clearence zone formed around the discs were measured and expressed in mm.
For orientation: Agar diffusion results depend on both activity and mobility in agar.

The test system of another assay is S. aureus. The assay is described as follows: Disc diffusion antimicrobial study against S. aureus. Here is the method:
as §1, §2

Assay [1] concerns Propionibacterium acnes ATCC 11827. The assay is described as follows: Direct bioautography on thin layer chromatograms. Particulars: TLC bioautography, P. acnes. Here is the method: The antibacterial effects of aqueous, methanolic Vitex agnus castus fruit extract and various extract fractions of different polarities were evaluated by bioautography technique. […] Further fractionation of oil has been done by Silica gel chromatography. Silica gel was been loaded more than half quantity of oil and fraction was collected from mobile phase, hexane, chloroform, 50% chloroform, chloroform, 10% methanol, 50% Methanol and Methanol alone. Active fraction was identified by bioautography technique.
Direct bioautography is the technique used to localize antibacterial activity on a chromatogram. (Lund et al. 1975)
In the present study, the separated fractions of Vitex oil were subjected to Thin Layer Chromatography on silica gel. The solvent system used was hexane: chloroform in 7:3 proportion [FIG. 1]. These chromatograms were dried in the oven at 60° C. for 1 hour to eliminate the traces of solvents. This can be visualized either by spraying the thin layer chromatogram with 5% methanolic sulphuric acid followed by heat drying or under UV light. The plates were taken to the anaerobic chamber where the bioautography experiment was carried out. The medium used was reinforced clostridial agar medium. […]
After incubation, 1-1.2 ml of tetrazolium salt solution [2% concentration] was sprayed as a coloring reagent on the plates. […] The diameter of the zones were measured and expressed in mm.

By zone of inhibition is commonly meant the size of the clear area around the sample on an inoculated plate. Read a low zone of inhibition as a weaker effect on the plate.

Turning to `COc1ccc(-c2oc3cc(OC)c(OC)c(O)c3c(=O)c2OC)cc1OC` [Artemetin], the MIC against E. coli (E. coli) and against S. aureus (S. aureus) was 1.0% in each case. Further, the zone of inhibition at 0.5 % strength stood at 0 mm with E. coli (Escherichia coli, concentration 0.5 % w/v) and 0 mm in the assay with S. aureus (Staphylococcus aureus, concentration 0.5 % w/v). In addition, the zone of inhibition at 1 % strength in the assay with E. coli (Escherichia coli, concentration 1 % w/v) amounted to 9 mm; in the assay on S. aureus (Staphylococcus aureus, concentration 1 % w/v), 8 mm. Moreover, the zone of inhibition at 5 % strength was 12 mm in the assay on E. coli (Escherichia coli, concentration 5 % w/v) and 10 mm in the assay on S. aureus (Staphylococcus aureus, concentration 5 % w/v). Further, in assay [1], the “Antibacterial activity by bioautography (in words)” value is on record as “Clearance zone was exhibited”.
